Laboratory results: the supplement of paper PMC9103864

What was measured:
[1] = test system: BMSC (primary human bone marrow mesenchymal stromal cells); experiment: drug sensitivity score (DSS); higher = more sensitive
[2] = test system: BMSC (primary human bone marrow mesenchymal stromal cells); experiment: absolute EC50 for viability; higher = less sensitive

SMILES | drug sensitivity score [1] | absolute EC50 for viability [2] [nM]
COc1cccc2c1C(=O)c1c(O)c3c(c(O)c1C2=O)C[C@@](O)(C(=O)CO)C[C@@H]3O[C@H]1C[C@H](N)[C@H](O)[C@H](C)O1 [Doxorubicin] | 6.8 | 219
Nc1cc(C(F)(F)F)c(-c2cc(N3CCOCC3)nc(N3CCOCC3)n2)cn1 [Buparlisib] | 7.8 | 2110
C=CC(=O)Nc1cc(Nc2nccc(-c3cn(C)c4ccccc34)n2)c(OC)cc1N(C)CCN(C)C [Osimertinib] | 1.5 | > 2500
O=C(Nc1ccc(OC(F)(F)Cl)cc1)c1cnc(N2CC[C@@H](O)C2)c(-c2cc[nH]n2)c1 [Asciminib] | 0 | > 1000
COc1cc(Br)c(Nc2nc(-c3c(C)nc4ncccn34)cs2)c(Br)c1 [PTC-209] | 4 | > 10000
CC(=O)[C@]1(O)Cc2c(O)c3c(c(O)c2[C@@H](O[C@H]2C[C@H](N)[C@H](O)[C@H](C)O2)C1)C(=O)c1ccccc1C3=O [Idarubicin] | 6.6 | 233
CN1CCN(C2CCN(C(=O)Nc3cc(Oc4ccc(NC(=O)C5(C(=O)Nc6ccc(F)cc6)CC5)c(F)c4)ccn3)CC2)CC1 [Golvatinib] | 2.7 | > 2500
O=C(O)C(=O)O.[NH-][C@@H]1CCCC[C@H]1[NH-].[Pt+2] [Oxaliplatin] | 0.7 | > 100000
CN1CCN(c2nc(C3=C(c4c[nH]c5ccccc45)C(=O)NC3=O)c3ccccc3n2)CC1 [Sotrastaurin] | 2.8 | > 10000
C=C1C[C@@H]2CC[C@@]34C[C@H]5O[C@H]6[C@@H](O3)[C@H]3O[C@H](CC[C@@H]3O[C@H]6[C@H]5O4)CC(=O)C[C@@H]3[C@@H](OC)[C@@H](C[C@H](O)CN)O[C@H]3C[C@H]3O[C@@H](CC[C@@H]1O2)C[C@@H](C)C3=C [Eribulin] | 12 | > 1000
COc1cc(C(=O)O)ccc1NC(=O)[C@@H]1N[C@@H](CC(C)(C)C)[C@](C#N)(c2ccc(Cl)cc2F)[C@H]1c1cccc(Cl)c1F [Idasanutlin] | 13.3 | 576
COc1cccc2c1C(=O)c1c(O)c3c(c(O)c1C2=O)C[C@@](O)(C(=O)CO)C[C@@H]3O[C@H]1C[C@H](N)[C@@H](O)[C@H](C)O1 [Epirubicin] | 6.4 | 249
CCNC(=O)c1noc(-c2cc(C(C)C)c(O)cc2O)c1-c1ccc(CN2CCOCC2)cc1 [Luminespib] | 16.8 | 15.2
CN(C)C/C=C/C(=O)Nc1cccc(C(=O)Nc2cccc(Nc3ncc(Cl)c(-c4c[nH]c5ccccc45)n3)c2)c1 [THZ2] | 11.1 | 2710
Cc1ccc(NC(=O)c2ccc(CN3CC[C@H](N(C)C)C3)c(C(F)(F)F)c2)cc1Nc1nccc(-c2cncnc2)n1 [Bafetinib] | 1.9 | > 1000
NC(=O)c1cccc2cn(-c3ccc([C@@H]4CCCNC4)cc3)nc12 [Niraparib] | 0.8 | > 10000
O=C(Nc1nc2cccc(-c3ccc(CN4CCS(=O)(=O)CC4)cc3)n2n1)C1CC1 [Filgotinib] | 2.3 | > 10000
CC(C)n1cnc2c(NCCc3ccc(O)cc3)nc(-c3csc4ccccc34)nc21 [StemRegenin 1] | 0.4 | > 10000
CN(C)Cc1c(C(=O)NCCOc2ccc(C(=O)NO)cc2)oc2ccccc12 [Abexinostat] | 10.1 | 1280

SMILES | drug sensitivity score [1] | absolute EC50 for viability [2] [nM]
COc1cccc(-c2ccc(NC(=O)C3=C(C(=O)O)CCC3)c(F)c2)c1 [Vidofludimus] | 0 | > 10000
CN1C(=O)N[C@H](Cc2c[nH]c3c(Cl)cccc23)C1=O [Necrostatin 2] | 0 | > 10000
CC(C)c1cc(C(=O)N2Cc3ccc(CN4CCN(C)CC4)cc3C2)c(O)cc1O [Onalespib] | 12.5 | 90.4
C[C@@H]1C[C@H]2[C@@H]3CCC4=CC(=O)C=C[C@]4(C)[C@@]3(F)[C@@H](O)C[C@]2(C)[C@@]1(O)C(=O)CO [Dexamethasone] | 0 | > 10000
O=C(c1cccc(Cl)c1F)N1CCN(Cc2cccc(Nc3nccs3)n2)CC1 [MK-8745] | 1.3 | > 10000
O=C1NC(=O)[C@@H](c2cn3c4c(cccc24)CCC3)[C@@H]1c1c[nH]c2ccccc12 [Tivantinib] | 0 | > 1000
Cc1cccc(-c2nn3c(c2-c2ccnc4ccc(C(N)=O)cc24)CCC3)n1 [Galunisertib] | 0 | > 1000
C[C@@H](C(=O)O)c1ccc(-c2ccccc2)c(F)c1 [Tarenflurbil] | 0 | > 10000
CS(=O)(=O)c1ccc(C(=O)Nc2ccc(Cl)c(-c3ccccn3)c2)c(Cl)c1 [Vismodegib] | 0 | > 10000
Oc1ncnc2[nH]ncc12 [Allopurinol] | 0 | > 10000
Cn1cnc2c(F)c(Nc3ccc(Br)cc3F)c(C(=O)NOCCO)cc21 [Binimetinib] | 1.9 | > 1000
CCCN(CCC)C(=O)C1=Cc2ccc(-c3ccc(C(=O)N4CCCC4)cc3)cc2N=C(N)C1 [Motolimod] | 0 | 9930
CC(C)Oc1ccc(-c2nn([C@@H](C)c3oc4ccc(F)cc4c(=O)c3-c3cccc(F)c3)c3ncnc(N)c23)cc1F [TGR-1202] | 0 | > 2500
CN(C)C[C@@H]1CCn2cc(c3ccccc32)C2=C(C(=O)NC2=O)c2cn(c3ccccc23)CCO1 [Ruboxistaurin] | 7 | 2420
O=C(CCNC(=O)c1ccc(OC(F)(F)F)cc1)N[C@@H]1CCCc2ccccc21 [ML390] | 0.3 | > 50000
CN1CCC(COc2cnc(-c3cccc(Cn4nc(-c5cccc(C#N)c5)ccc4=O)c3)nc2)CC1 [Tepotinib] | 0.3 | > 1000
COc1cc(Nc2ncc3c(n2)-c2ccc(Cl)cc2C(c2c(F)cccc2OC)=NC3)ccc1C(=O)O [Alisertib] | 0 | > 10000
N#Cc1ccc2[nH]c(O)c(-c3ccc(CN4CCOCC4)cn3)c2c1 [AZD-1080] | 0 | > 10000
NS(=O)(=O)OC[C@@H]1C[C@@H](n2ccc3c(N[C@H]4CCc5ccccc54)ncnc32)C[C@@H]1O [Pevonedistat] | 5.4 | > 10000

SMILES | drug sensitivity score [1] | absolute EC50 for viability [2] [nM]
O=C(/C=C/c1cccc(S(=O)(=O)Nc2ccccc2)c1)NO [Belinostat] | 7.2 | 2230
Nc1cccc2c1C(=O)N(C1CCC(=O)NC1=O)C2=O (configuration not stated) [Pomalidomide] | 0 | > 10000
CCc1c(C(=O)C(N)=O)c2c(OCC(=O)O)cccc2n1Cc1ccccc1 [Varespladib] | 0 | > 10000
CCN1CCN(Cc2ccc(Nc3ncc(F)c(-c4cc(F)c5nc(C)n(C(C)C)c5c4)n3)nc2)CC1 [Abemaciclib] | 0 | > 2500
CCN(CC)CCNC(=O)c1c(C)[nH]c(/C=C2\C(=O)Nc3ccc(F)cc32)c1C [Sunitinib] | 5.6 | > 1000
Cc1ccccc1CN1C(=O)C2=C(CCN(Cc3ccccc3)C2)N2CCN=C12 [TIC10] | 3.8 | > 25000
CC[C@]1(O)C[C@H]2CN(CCc3c([nH]c4ccccc34)[C@@](C(=O)OC)(c3cc4c(cc3OC)N(C=O)[C@H]3[C@@](O)(C(=O)OC)[C@H](OC(C)=O)[C@]5(CC)C=CCN6CC[C@]43[C@@H]65)C2)C1 [Vincristine] | 3.4 | > 1000
COC[C@H](NC(=O)c1cnc(C)s1)C(=O)N[C@@H](COC)C(=O)N[C@@H](Cc1ccccc1)C(=O)[C@@]1(C)CO1 [Oprozomib] | 10 | 304
CCn1c(-c2nonc2N)nc2c(C#CC(C)(C)O)ncc(OC[C@H]3CCCNC3)c21 | 6.3 | > 10000
C=CC[C@@H]1/C=C(\C)C[C@H](C)C[C@H](OC)[C@H]2O[C@@](O)(C(=O)C(=O)N3CCCC[C@H]3C(=O)O[C@H](/C(C)=C/[C@@H]3CC[C@@H](O)[C@H](OC)C3)[C@H](C)[C@@H](O)CC1=O)[C@H](C)C[C@@H]2OC [Tacrolimus] | 1.8 | > 10000
CC[C@@](C)(Nc1ccnc(-c2c[nH]c3ncccc23)n1)C(=O)NCC(F)(F)F [Decernotinib] | 0.4 | > 10000
C=CC(=O)Nc1cccc(Nc2nc(Nc3ccc(N4CCN(C(C)=O)CC4)cc3OC)ncc2C(F)(F)F)c1 [Rociletinib] | 5.8 | 2860
CC(O)c1cc(C(=O)N[C@@H](C)Cn2ccc(-c3ccc(C#N)c(Cl)c3)n2)n[nH]1 (some centres not stated) [ODM-201] | 0 | > 2500
CC1(COc2ccc3c(c2)ncn3-c2ccc3cccc(N4CCC(N)CC4)c3n2)COC1 [Crenolanib] | 8.5 | 1840
Nc1nc(Nc2ccc3c(c2)CC[C@@H](N2CCCC2)CC3)nn1-c1cc2c(nn1)-c1ccccc1CCC2 [BGB324] | 6.7 | 2490
CC(=O)c1cc2c(o1)C(=O)c1ccccc1C2=O [Napabucasin] | 17.6 | 640
COc1cc2c(NC3CCN(C(C)C)CC3)nc(N3CCC(F)(F)CC3)nc2cc1OCCCN1CCCC1 [UNC0642] | 5.2 | 3380
COc1nc(N)nc2c1ncn2[C@@H]1O[C@H](CO)[C@@H](O)[C@@H]1O [Nelarabine] | 0 | > 10000
